Legend:
RAMP2-CLR (AM1 receptor) = target: T1, RAMP2-CLR (AM1 receptor) (Homo sapiens, UniProt O60895+Q16602); assay: S. cerevisiae growth assay, GPA1/Gαs chimera, RAMP2 + CLR; type: cell-based; details: percentage of yeast strain MMY11 (lacking GPA1); 20 h; mean ± S.E., n = 7
T1 construct: FLAG; expressed in transfected cells; host or cells: HEK-293 or HEK-293S cells, transient transfection, 1:1 RAMP:CLR
Procedure: FIGURE 1. […] Reporter gene activity was determined following 20 h of stimulation with each ligand. Data are expressed as a percentage of the maximum response observed in yeast strain MMY11 (lacking GPA1) and are means ± S.E. of n individual data sets. […] Data were determined as statistically different from the cognate ligand for each receptor (*, p < 0.05; **, p < 0.01; ***, p < 0.001) using a one-way ANOVA with Bonferroni's post-test.
General yeast procedures were performed as described previously ([22], [24]). The human CLR was introduced into yeast cells under the control of the PGK promoter using a plasmid containing ura3 (pDT-PGK). […] Receptor signaling was measured using the yeast growth assay as described previously ([24]). […] A fluorescein signal was detected as an increase in fluorescence (excitation wavelength = 485 nm, emission wavelength = 535 nm) as a measure of growth. Different concentrations of ligand (0.01 nM–100 μM) were assayed using 96-well plates, and fluorescence was detected using a Tecan Infinite M200 microplate reader (Tecan Ultra Evolution, Reading, UK) or a Mithras LB 940 microplate reader (Berthold Technologies, Harpenden, UK) for 20 h.
Data analysis for cAMP assays was performed in GraphPad Prism 6.0f (San Diego, CA). […] To quantitate the ligand-dependent response in the yeast system, a strain lacking GPA1 (MMY11), grown in rich medium, was used as a standard ([72]). […]

[1] = target: T2, RAMP1-CLR (CGRP receptor) (Homo sapiens, UniProt O60894+Q16602); assay: S. cerevisiae growth assay, GPA1/Gαq chimera, RAMP1 + CLR; type: cell-based; details: percentage of yeast strain MMY11 (lacking GPA1); 24-h; mean ± S.E., n = 7
T2 construct: FLAG; expressed in transfected cells; host or cells: HEK-293 or HEK-293S cells, transient transfection, 1:1 RAMP:CLR
Procedure: FIGURE 7. […] Reporter gene activity was determined following 24-h stimulation. All data are expressed as percentage of the maximum response observed in yeast strain MMY11 and are means ± S.E. of n individual data sets. D, Bar chart showing the efficacy of each ligand for each RAMP-CLR combination at the Gαq chimera determined via application of the operational model of receptor agonism (Ref. [34] and Table 1). Data were determined as statistically different from the cognate ligand for each receptor (***, p < 0.001; ****, p < 0.0001) using one-way ANOVA with Bonferroni's post-test. E, signaling bias plots were calculated as ΔΔ(τ/Ka) values on a logarithmic scale for each ligand and for each chimera G protein for the three individual RAMP-CLR complexes.
General yeast procedures were performed as described previously ([22], [24]). […] Receptor signaling was measured using the yeast growth assay as described previously ([24]). […] A fluorescein signal was detected as an increase in fluorescence (excitation wavelength = 485 nm, emission wavelength = 535 nm) as a measure of growth. Different concentrations of ligand (0.01 nM–100 μM) were assayed using 96-well plates, and fluorescence was detected using a Tecan Infinite M200 microplate reader (Tecan Ultra Evolution, Reading, UK) or a Mithras LB 940 microplate reader (Berthold Technologies, Harpenden, UK) for 20 h. […]

T2 sequence (Q16602 23-461): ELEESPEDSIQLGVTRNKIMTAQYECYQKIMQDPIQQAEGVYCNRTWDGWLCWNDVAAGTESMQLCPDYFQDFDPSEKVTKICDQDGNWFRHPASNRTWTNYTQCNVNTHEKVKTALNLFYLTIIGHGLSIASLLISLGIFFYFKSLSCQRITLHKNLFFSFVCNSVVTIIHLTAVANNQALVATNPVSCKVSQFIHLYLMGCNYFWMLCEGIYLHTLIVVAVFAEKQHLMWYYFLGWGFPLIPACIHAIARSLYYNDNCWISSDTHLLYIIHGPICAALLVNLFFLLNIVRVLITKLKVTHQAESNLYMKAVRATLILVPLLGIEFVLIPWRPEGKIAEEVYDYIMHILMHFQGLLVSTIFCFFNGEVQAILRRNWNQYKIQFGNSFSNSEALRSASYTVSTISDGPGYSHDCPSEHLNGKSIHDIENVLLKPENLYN
T2 sequence (O60894 27-148): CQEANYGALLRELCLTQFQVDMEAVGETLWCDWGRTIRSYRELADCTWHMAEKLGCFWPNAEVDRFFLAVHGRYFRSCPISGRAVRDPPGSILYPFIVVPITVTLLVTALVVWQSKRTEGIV
T1 sequence (Q16602 23-461): as the sequence (Q16602 23-461) above
T1 sequence (O60895 43-175): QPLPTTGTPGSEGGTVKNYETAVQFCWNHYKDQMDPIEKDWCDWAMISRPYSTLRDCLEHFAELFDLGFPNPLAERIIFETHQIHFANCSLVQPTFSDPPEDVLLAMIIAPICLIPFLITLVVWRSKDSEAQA

Emax (RAMP2-CLR (AM1 receptor)) [%] | Emax [1] [%] | Compound
19.9 ± 2.5 |  | CSCC[C@H](NC(=O)[C@H](CC(C)C)NC(=O)[C@H](CCC(N)=O)NC(=O)[C@H](Cc1c[nH]c2ccccc12)NC(=O)[C@H](CC(C)C)NC(=O)[C@H](CCCNC(=N)N)NC(=O)[C@H](Cc1c[nH]cn1)NC(=O)[C@H](CO)NC(=O)[C@H](CC(C)C)NC(=O)[C@H](CC(N)=O)NC(=O)[C@H](CCC(N)=O)NC(=O)[C@@H](NC(=O)[C@H](CCC(N)=O)NC(=O)[C@@H]1CSSC[C@H](NC(=O)CNC(=O)[C@@H](NC(=O)[C@H](CCCNC(=N)N)NC(=O)[C@H](CC(C)C)NC(=O)[C@H](CC(C)C)NC(=O)[C@H](CCC(N)=O)NC(=O)[C@H](C)NC(=O)[C@H](CCC(N)=O)NC(=O)[C@@H](N)[C@@H](C)O)C(C)C)C(=O)N[C@@H](C(C)C)C(=O)N[C@@H](CC(C)C)C(=O)NCC(=O)N[C@@H]([C@@H](C)O)C(=O)N1)C(C)C)C(=O)NCC(=O)N1CCC[C@H]1C(=O)N[C@@H](C)C(=O)NCC(=O)N[C@@H](CCCNC(=N)N)C(=O)N[C@@H](CCC(N)=O)C(=O)N[C@@H](CC(=O)O)C(=O)N[C@@H](CO)C(=O)N[C@@H](C)C(=O)N1CCC[C@H]1C(=O)N[C@H](C(=O)N[C@@H](CC(=O)O)C(=O)N1CCC[C@H]1C(=O)N[C@@H](CO)C(=O)N[C@@H](CO)C(=O)N1CCC[C@H]1C(=O)N[C@@H](Cc1c[nH]cn1)C(=O)N[C@@H](CO)C(=O)N[C@@H](Cc1ccc(O)cc1)C(N)=O)C(C)C [AM2, adrenomedullin 2]
 | 14.1 ± 1.2 | CC[C@H](C)[C@H](NC(=O)[C@H](CCC(N)=O)NC(=O)[C@H](Cc1c[nH]cn1)NC(=O)[C@H](C)NC(=O)[C@H](CC(C)C)NC(=O)[C@H](CCCCN)NC(=O)[C@H](CCC(N)=O)NC(=O)[C@@H](NC(=O)[C@@H](NC(=O)[C@@H]1CSSC[C@H](NC(=O)CNC(=O)[C@H](Cc2ccccc2)NC(=O)[C@H](CO)NC(=O)[C@H](CCCNC(=N)N)NC(=O)[C@H](CC(C)C)NC(=O)CNC(=O)[C@H](CCC(N)=O)NC(=O)[C@H](Cc2ccccc2)NC(=O)[C@H](CC(N)=O)NC(=O)[C@H](CC(N)=O)NC(=O)[C@H](CCSC)NC(=O)[C@H](CO)NC(=O)[C@H](CCC(N)=O)NC(=O)[C@H](CCCNC(=N)N)NC(=O)[C@@H](N)Cc2ccc(O)cc2)C(=O)N[C@@H](CCCNC(=N)N)C(=O)N[C@@H](Cc2ccccc2)C(=O)NCC(=O)N[C@@H]([C@@H](C)O)C(=O)N1)[C@@H](C)O)C(C)C)C(=O)N[C@@H](Cc1ccc(O)cc1)C(=O)N[C@@H](CCC(N)=O)C(=O)N[C@@H](Cc1ccccc1)C(=O)N[C@H](C(=O)N[C@@H](CC(=O)O)C(=O)N[C@@H](CCCCN)C(=O)N[C@@H](CC(=O)O)C(=O)N[C@@H](CCCCN)C(=O)N[C@@H](CC(=O)O)C(=O)N[C@@H](CC(N)=O)C(=O)N[C@H](C(=O)N[C@@H](C)C(=O)N1CCC[C@H]1C(=O)N[C@@H](CCCNC(=N)N)C(=O)N[C@@H](CO)C(=O)N[C@@H](CCCCN)C(=O)N[C@H](C(=O)N[C@@H](CO)C(=O)N1CCC[C@H]1C(=O)N[C@@H](CCC(N)=O)C(=O)NCC(=O)N[C@@H](Cc1ccc(O)cc1)C(N)=O)[C@@H](C)CC)C(C)C)[C@@H](C)O [AM, adrenomedullin]

Source: article PMC5063977 (The Journal of Biological Chemistry, 2016)
